In paper PMC3070735, “Uremic Toxins Inhibit Transport by Breast Cancer Resistance Protein and Multidrug Resistance Protein 4 at Clinically Relevant Concentrations” (PLoS ONE, 2011):
Structures can show the parent of a compound that is named as a salt. Where two headings read alike, the source gives them in different places.

Biological target: T1, BCRP (Homo sapiens, UniProt Q9UNQ0)
T1 sequence (Q9UNQ0 1-655): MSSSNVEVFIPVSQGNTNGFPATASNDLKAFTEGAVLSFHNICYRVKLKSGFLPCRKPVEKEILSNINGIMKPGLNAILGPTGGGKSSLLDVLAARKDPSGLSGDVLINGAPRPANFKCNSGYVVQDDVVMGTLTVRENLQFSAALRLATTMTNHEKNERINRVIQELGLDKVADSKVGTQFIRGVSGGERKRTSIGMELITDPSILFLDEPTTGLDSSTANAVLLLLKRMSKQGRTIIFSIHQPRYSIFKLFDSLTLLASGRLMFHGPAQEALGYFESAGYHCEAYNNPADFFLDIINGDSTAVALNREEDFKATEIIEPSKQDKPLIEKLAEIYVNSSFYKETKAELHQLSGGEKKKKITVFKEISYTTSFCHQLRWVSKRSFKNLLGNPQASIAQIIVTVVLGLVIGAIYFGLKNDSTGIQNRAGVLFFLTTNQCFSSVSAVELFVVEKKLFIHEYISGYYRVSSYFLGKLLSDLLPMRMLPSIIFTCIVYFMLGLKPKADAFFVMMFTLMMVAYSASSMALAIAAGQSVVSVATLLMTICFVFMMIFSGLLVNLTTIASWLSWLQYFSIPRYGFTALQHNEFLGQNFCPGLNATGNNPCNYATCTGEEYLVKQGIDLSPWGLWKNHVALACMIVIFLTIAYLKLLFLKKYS
Assay: Membrane vesicle transport inhibition assay: BCRP-mediated [3H]-E1S uptake
Conditions: for Decrease of BCRP-mediated transport compared to control: toxin 1 mM; for Mode of inhibition of BCRP-mediated transport: Dixon plot, three [3H]-E1S concentrations; for IC50: IC50, [3H]-E1S uptake into BCRP membrane vesicles, 1 min, 37°C, mean ± SEM of three experiments; for IC20 at 1 min: human, membrane vesicles from HEK293 cells overexpressing BCRP, pH 7, probe [3H]-estrone sulfate ([3H]-E1S)
Description: Human embryonic kidney (HEK293; purchased at American Type Culture Collection, Manassas, VA) cells were cultured in Dulbecco's modified Eagle's medium (Invitrogen life sciences, Breda, the Netherlands) containing 10% (v/v) fetal calf serum (MP Biomedicals, Uden, the Netherlands) at 37°C in a 5% (v/v) CO2 atmosphere. To functionally overexpress MRP4 and BCRP, HEK293 cells were transduced with baculoviruses of human MRP4, BCRP or enhanced yellow fluorescent protein (EYFP), generated via the Bac-to-Bac system (Invitrogen) as previously described. To transduce HEK293 cells, they were cultured in 500 cm^2 flasks until 70% confluence. Subsequently, medium was removed and 10 ml of virus and 25 ml of medium were added and incubated for 30 min at 37°C. Next, 50 ml of medium was added and after 2 h of transduction 5 mM sodium butyrate was added.
Three days after transduction, cells were harvested and pelleted by centrifugation (30 min at 4,000 x g). Afterwards, the cells were resuspended in ice-cold hypotonic TS buffer (0.5 mM sodium phosphate, 0.1 mM EDTA, pH 7.0) containing protease inhibitors (100 µM phenylmethylsulfonyl fluoride, 5 µg/ml aprotinin, 5 µg/ml leupeptin, 1 µg/ml pepstatin and 1 µg/ml E-64) and shaken for 30 min at 4°C. Cells were then centrifuged at 100,000 x g for 30 min at 4°C. Subsequently, pellet was resuspended in ice-cold isotonic buffer (10 mM Tris-HEPES and 250 mM sucrose, pH 7.4, adjusted with HEPES) supplemented with protease inhibitors and homogenized using a tight fitting Dounce homogenizer followed by centrifugation (1,000 x g, 20 min, 4°C). Afterwards, supernatant was centrifuged at 100,000 x g for 1 h at 4°C. The resulting pellet was resuspended in isotonic buffer and passed through a 27-gauge needle 25 times to obtain crude membrane vesicles. The protein content of samples was determined using the Bio-Rad protein assay (Veenendaal, the Netherlands), according to manufacturers recommendations. Vesicles were frozen in liquid nitrogen and stored at −80°C until use. The orientation of the membrane vesicles was not determined, since ATP-dependent uptake occurs only in inside-out vesicles.
A rapid filtration technique was used to study the uptake of [^3H]-MTX and [^3H]-E1S into MRP4 or BCRP membrane vesicles, as previously described. In short, 25 µl of TS buffer containing 4 mM ATP, 10 mM MgCl2 and radiolabeled substrate was added to 5 µl of the membrane vesicles (1.5 mg/ml). The transport assay was performed in the absence or presence of various concentrations of uremic toxins to evaluate the inhibitory effects of these compounds on MRP4-mediated [^3H]-MTX uptake and BCRP-mediated [^3H]-E1S uptake. […] Uptake was stopped by placing the samples on ice and the addition of 150 µl ice cold TS buffer. Subsequently, the samples were transferred to a 96 well filter plate (Millipore, Etten-leur, the Netherlands) pre-incubated with TS buffer and filtered using a Multiscreen HTS-Vacuum Manifold filtration device (Millipore). Afterwards, 2 ml of scintillation liquid was added to each filter and radioactivity was determined using liquid scintillation counting. As negative controls ATP was substituted for AMP and EYFP-membrane vesicles were used. Each experiment was performed in triplicates.
Statistics were performed using GraphPad Prism 5.02 via an unpaired t test or a Kruskal-Wallis test followed by a Dunn's Multiple Comparison test. Differences between groups were considered to be statistically significant when p<0.05. The mean IC50 and IC20 values were calculated from the inhibition curves used for the Dixon analysis and to determine the inhibition constant (Ki) from the Dixon plots. Transport inhibition studies were performed in triplicate and repeated at least three times.

[1] = [3H]-E1S uptake, result in words

| Compound | Effect on transport mediated by BCRP [1] | Decrease of BCRP-mediated transport compared to control ([3H]-E1S uptake) | Ki | IC50 | IC20 at 1 min | further results |
| --- | --- | --- | --- | --- | --- | --- |
| O=C(O)Cc1c[nH]c2ccccc12 [indole-3-acetic acid] | only reduced [^3H]-MTX uptake by MRP4 | – | – | – | – | – |
| Cc1ccc(S(=O)(=O)O)cc1 [p-toluenesulfonic acid, reference compound] | did not alter transport | ≤ 10% | – | – | – | – |
| Cc1ccc(O)cc1 [p-cresol] | – | ≤ 10% | – | – | – | Effect on transport mediated by BCRP: did not alter transport |
| NCCCCN [putrescine] | did not alter transport | ≤ 10% | – | – | – | – |
| O=C(O)Cc1ccccc1 [phenylacetic acid] | only reduced [^3H]-MTX uptake by MRP4 | – | – | – | – | – |
| O=S(=O)(O)Oc1c[nH]c2ccccc12 [indoxyl sulfate] | – | – | 500 µM | 770 ± 120 µM | 390 ± 30 µM | Mode of inhibition of BCRP-mediated transport: non-competitive |
| O=C(O)c1cc(=O)c2ccccc2[nH]1 [kynurenic acid] | – | – | 50 µM | 40 ± 1 µM | 10 ± 1 µM | – |
| O=C(O)CNC(=O)c1ccccc1 [hippuric acid] | – | – | 4000 ± 100 µM | 3670 ± 170 µM | 690 ± 70 µM | Extent of inhibition of [3H]-E1S uptake by BCRP (0.1 mM to 3.5 mM, result in words): completely blocked; Mode of inhibition of BCRP-mediated transport: non-competitive |
| O=C(O)c1cccnc1C(=O)O [quinolinic acid] | did not alter transport | ≤ 10% | – | – | – | – |
| O=C(O)C(=O)O [oxalate] | did not alter transport | ≤ 10% | – | – | – | – |
